Laboratory results taken from ChEMBL document CHEMBL1201862, “PubChem BioAssay data set” (2004).
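Where inhibition never reached the appropriate level, the endpoint shown equals the highest concentration tested. Otherwise, values were interpolated linearly from a five-concentration, 48-hour dose response in 96-well plates. GI50: concentration for 50% inhibition of growth.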 Active and inactive are the calls of the source. No stated cut-off is given here; in the data, active = GI50 up to about 1.1 µM and inactive = higher.

Assays:
Experiment in all cases: NCI anticancer screen, dose series, 48 h
[1] = system: UO-31
[2] = system: XF498
[3] = system: SW-620
[4] = system: HT-29
[5] = system: SN12C
[6] = system: CCRF-CEM
[7] = system: HCT-15
[8] = system: SNB-78
[9] = system: RPMI-8226
[10] = system: OVCAR-5
[11] = system: ACHN
[12] = system: NCI-H522
[13] = system: SF-268
[14] = system: SK-MEL-28
[15] = system: HOP-18
[16] = system: UACC-62
[17] = system: KM12
[18] = system: SK-MEL-5
[19] = system: M19-MEL
[20] = system: LXFL 529
[21] = system: TK-10
[22] = system: SNB-19
[23] = system: SK-OV-3
[24] = system: RXF 631
[25] = system: SNB-75
[26] = system: HCC 2998
[27] = system: A498
[28] = system: SF-539
[29] = system: OVCAR-4
[30] = system: DLD-1
[31] = system: DMS-273
[32] = system: COLO 205
[33] = system: IGROV-1
[34] = system: NCI-H23
[35] = system: NCI-H226
[36] = system: HL-60
[37] = system: SR
[38] = system: MOLT-4
[39] = system: NCI-H460
[40] = system: OVCAR-8
[41] = system: DMS-114
[42] = system: A549
[43] = system: U-251
[44] = system: LOX IMVI
[45] = system: RXF 393
[46] = system: OVCAR-3
[47] = system: HCT-116
[48] = system: 786-0
[49] = system: EKVX
[50] = system: HOP-62
[51] = system: Malme-3M
[52] = system: UACC-257
[53] = system: SK-MEL-2
[54] = system: M14
[55] = system: KM-20L2
[56] = system: SF-295
[57] = system: K562
[58] = system: CAKI-1
[59] = system: HOP-92

CC(=O)OCCOCNC(=S)N/N=C/c1ccc2ccccc2n1
GI50 [1]: 31.2 µM (inactive) | GI50 [2]: > 100 µM (inactive) | GI50 [3]: 36.1 µM (inactive) | GI50 [4]: 40.6 µM (inactive) | GI50 [5]: 48 µM (inactive) | GI50 [6]: 54 µM (inactive) | GI50 [7]: 29.8 µM | GI50 [8]: > 100 µM (inactive) | GI50 [9]: > 100 µM (inactive) | GI50 [10]: 14.3 µM (inactive) | GI50 [11]: 23 µM (inactive) | GI50 [12]: 14.1 µM (inactive) | GI50 [13]: 34.9 µM (inactive) | GI50 [14]: 70.1 µM (inactive) | GI50 [15]: 75.9 µM (inactive) | GI50 [16]: 21.8 µM (inactive) | GI50 [17]: 55.7 µM (inactive) | GI50 [18]: 23.9 µM (inactive) | GI50 [19]: 28.6 µM (inactive) | GI50 [20]: 33.3 µM (inactive) | GI50 [21]: 69 µM (inactive) | GI50 [22]: > 100 µM (inactive) | GI50 [23]: 43.1 µM (inactive) | GI50 [24]: 55.6 µM (inactive) | GI50 [25]: 51.3 µM (inactive) | GI50 [26]: 31.7 µM (inactive) | GI50 [27]: > 100 µM (inactive) | GI50 [28]: 46.9 µM (inactive) | GI50 [29]: 63 µM (inactive) | GI50 [30]: 54.1 µM (inactive) | GI50 [31]: 36.1 µM (inactive) | GI50 [32]: 26.5 µM (inactive) | GI50 [33]: 44.6 µM (inactive) | GI50 [34]: 73.1 µM (inactive) | GI50 [35]: > 100 µM (inactive) | GI50 [36]: 36.4 µM (inactive) | GI50 [37]: 24.8 µM (inactive) | GI50 [38]: > 100 µM (inactive) | GI50 [39]: 27.5 µM (inactive) | GI50 [40]: 37.1 µM (inactive) | GI50 [41]: 22.6 µM (inactive) | GI50 [42]: 33 µM (inactive) | GI50 [43]: 29.2 µM (inactive) | GI50 [44]: 43 µM (inactive) | GI50 [45]: 46.2 µM (inactive) | GI50 [46]: 35.3 µM (inactive) | GI50 [47]: 42.2 µM (inactive) | GI50 [48]: 39.4 µM (inactive) | GI50 [49]: 32.7 µM (inactive) | GI50 [50]: 45.1 µM (inactive) | GI50 [51]: 55.5 µM (inactive) | GI50 [52]: 48.9 µM (inactive) | GI50 [53]: > 100 µM (inactive) | GI50 [54]: 32.5 µM (inactive) | GI50 [55]: 19.5 µM (inactive) | GI50 [56]: 44.6 µM (inactive) | GI50 [57]: 53.2 µM (inactive)

CCOc1c(Cc2ccccc2)c(=O)n2c3ccccc3n3c(=O)n(C)c(=O)c1c23
GI50 [1]: > 100 µM (inactive) | GI50 [2]: > 100 µM (inactive) | GI50 [3]: > 100 µM (inactive) | GI50 [4]: > 100 µM (inactive) | GI50 [5]: > 100 µM (inactive) | GI50 [58]: > 100 µM (inactive) | GI50 [7]: > 100 µM | GI50 [8]: > 100 µM (inactive) | GI50 [9]: > 100 µM (inactive) | GI50 [10]: > 100 µM (inactive) | GI50 [11]: > 100 µM (inactive) | GI50 [13]: > 100 µM (inactive) | GI50 [14]: > 100 µM (inactive) | GI50 [15]: > 100 µM (inactive) | GI50 [16]: > 100 µM (inactive) | GI50 [17]: > 100 µM (inactive) | GI50 [18]: > 100 µM (inactive) | GI50 [19]: > 100 µM (inactive) | GI50 [20]: > 100 µM (inactive) | GI50 [59]: > 100 µM (inactive) | GI50 [21]: > 100 µM (inactive) | GI50 [22]: > 100 µM (inactive) | GI50 [23]: > 100 µM (inactive) | GI50 [24]: > 100 µM (inactive) | GI50 [25]: 27.2 µM (inactive) | GI50 [26]: > 100 µM (inactive) | GI50 [27]: > 100 µM (inactive) | GI50 [28]: > 100 µM (inactive) | GI50 [29]: > 100 µM (inactive) | GI50 [30]: > 100 µM (inactive) | GI50 [31]: > 100 µM (inactive) | GI50 [32]: > 100 µM (inactive) | GI50 [33]: > 100 µM (inactive) | GI50 [34]: > 100 µM (inactive) | GI50 [37]: > 100 µM (inactive) | GI50 [38]: > 100 µM (inactive) | GI50 [39]: > 100 µM (inactive) | GI50 [40]: > 100 µM (inactive) | GI50 [41]: > 100 µM (inactive) | GI50 [42]: > 100 µM (inactive) | GI50 [43]: > 100 µM (inactive) | GI50 [44]: > 100 µM (inactive) | GI50 [45]: > 100 µM (inactive) | GI50 [46]: > 100 µM (inactive) | GI50 [47]: > 100 µM (inactive) | GI50 [48]: > 100 µM (inactive) | GI50 [49]: > 100 µM (inactive) | GI50 [50]: > 100 µM (inactive) | GI50 [51]: > 100 µM (inactive) | GI50 [52]: > 100 µM (inactive) | GI50 [53]: > 100 µM (inactive) | GI50 [54]: > 100 µM (inactive) | GI50 [56]: 59.6 µM (inactive)

Cc1ccc(S(=O)OC2c3ccccc3Cc3ccccc32)cc1 (configuration not stated)
GI50 [1]: 18.3 µM (inactive) | GI50 [2]: 15.2 µM (inactive) | GI50 [3]: 22.5 µM (inactive) | GI50 [4]: 32.1 µM (inactive) | GI50 [5]: 20.3 µM (inactive) | GI50 [58]: 17.3 µM (inactive) | GI50 [7]: 19.9 µM | GI50 [8]: 19.9 µM (inactive) | GI50 [9]: 36.1 µM (inactive) | GI50 [10]: 15.6 µM (inactive) | GI50 [11]: 22.4 µM (inactive) | GI50 [12]: 13.9 µM (inactive) | GI50 [13]: 20.7 µM (inactive) | GI50 [14]: 19.2 µM (inactive) | GI50 [15]: 24.8 µM (inactive) | GI50 [16]: 17.7 µM (inactive) | GI50 [17]: 21.2 µM (inactive) | GI50 [18]: 19.3 µM (inactive) | GI50 [19]: 21.1 µM (inactive) | GI50 [20]: 16.4 µM (inactive) | GI50 [59]: 17.2 µM (inactive) | GI50 [21]: 21.1 µM (inactive) | GI50 [22]: 23.8 µM (inactive) | GI50 [23]: 19.5 µM (inactive) | GI50 [24]: 17.2 µM (inactive) | GI50 [25]: 17.9 µM (inactive) | GI50 [26]: 19.1 µM (inactive) | GI50 [27]: 21.9 µM (inactive) | GI50 [28]: 18.5 µM (inactive) | GI50 [29]: 17.8 µM (inactive) | GI50 [30]: 22.9 µM (inactive) | GI50 [31]: 17.5 µM (inactive) | GI50 [32]: 17.5 µM (inactive) | GI50 [33]: 21.6 µM (inactive) | GI50 [34]: 18.6 µM (inactive) | GI50 [35]: 18.5 µM (inactive) | GI50 [36]: 17.6 µM (inactive) | GI50 [37]: 21.8 µM (inactive) | GI50 [38]: 19.2 µM (inactive) | GI50 [39]: 22.3 µM (inactive) | GI50 [40]: 15.6 µM (inactive) | GI50 [41]: 20.2 µM (inactive) | GI50 [42]: 27.3 µM (inactive) | GI50 [43]: 27.6 µM (inactive) | GI50 [44]: 14.4 µM (inactive) | GI50 [45]: 13.3 µM (inactive) | GI50 [46]: 21.5 µM (inactive) | GI50 [47]: 17.1 µM (inactive) | GI50 [48]: 21.7 µM (inactive) | GI50 [49]: 18.6 µM (inactive) | GI50 [50]: 17.5 µM (inactive) | GI50 [51]: 13.1 µM (inactive) | GI50 [52]: 19.3 µM (inactive) | GI50 [54]: 18.6 µM (inactive) | GI50 [55]: 19.9 µM (inactive) | GI50 [56]: 23.9 µM (inactive) | GI50 [57]: 17.7 µM (inactive)
